Source: PubChem BioAssay AID256 (DTP/NCI, 2004)
Where “and” joins values, the source holds several entries; their conditions need not be identical. Equal values may be shown once. Inconclusive results and toxic doses are left out.

System: CD2F1 mice, L1210 leukemia ip, survival T/C
Assay: NCI In Vivo Anticancer Drug Screen. Data for tumor model L1210 Leukemia (intraperitoneal) in CD2F1 (CDF1) mice
Details: higher = longer survival
Method in brief: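 In this screen, transplantable tumors were grown in mice given either the compound or its vehicle. Results were expressed as the treated measurement relative to the control measurement.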

[1] = endpoint: mean survival time, dose: 100.0 mg/kg/injection, schedule: Q04DX003 (ip), vehicle: saline with Tween-80
[2] = endpoint: mean survival time, dose: 200.0 mg/kg/injection, schedule: Q04DX003 (ip), vehicle: saline with Tween-80
[3] = endpoint: mean survival time, dose: 400.0 mg/kg/injection, schedule: Q04DX003 (ip), vehicle: saline with Tween-80
[4] = endpoint: mean survival time, dose: 25.0 mg/kg/injection, schedule: Q01DX009 (ip), vehicle: water
[5] = endpoint: mean survival time, dose: 50.0 mg/kg/injection, schedule: Q01DX009 (ip), vehicle: water
[6] = endpoint: mean survival time, dose: 100.0 mg/kg/injection, schedule: Q01DX009 (ip), vehicle: water
[7] = endpoint: mean survival time, dose: 200.0 mg/kg/injection, schedule: Q01DX009 (ip), vehicle: water

With `O=P(Oc1ccccc1)(Oc1ccccc1)C(Nc1ccccc1)c1ccncc1` (centres undefined) the T/C [1] was 93 % of control, the T/C [2] was 100 % of control and the T/C [3] was 102 % of control.
For `CC(C)(C)CC(C)(C)NCC(O)COc1ccc(C(C)(C)c2ccc(OCC(O)CNC(C)(C)CC(C)(C)C)cc2)cc1` (centres undefined), the T/C (endpoint: mean survival time, dose: 3.0 mg/kg/injection, schedule: Q01DX009 (ip), vehicle: saline with Tween-80) was 102 % of control, the T/C (endpoint: mean survival time, dose: 3.12 mg/kg/injection, schedule: Q01DX009 (ip), vehicle: Klucel (hydroxypropylcellulose) (HPC)) was 93 % of control and the T/C (endpoint: mean survival time, dose: 6.0 mg/kg/injection, schedule: Q01DX009 (ip), vehicle: saline with Tween-80) was 100 % of control. The T/C (endpoint: mean survival time, dose: 6.25 mg/kg/injection, schedule: Q01DX009 (ip), vehicle: Klucel (hydroxypropylcellulose) (HPC)) was 94 % of control, the T/C (endpoint: mean survival time, dose: 12.0 mg/kg/injection, schedule: Q01DX009 (ip), vehicle: saline with Tween-80) was 94 % of control and the T/C (endpoint: mean survival time, dose: 12.5 mg/kg/injection, schedule: Q01DX009 (ip), vehicle: Klucel (hydroxypropylcellulose) (HPC)) was 100 % of control.
With `O=C1OC(c2ccc(O)cc2)(c2ccc(O)cc2)c2ccccc21` the T/C (endpoint: mean survival time, dose: 100.0 mg/kg/injection, schedule: Q01DX009 (ip), vehicle: saline with Tween-80) was 95 % of control, the T/C [1] was 107 % of control and the T/C (endpoint: mean survival time, dose: 200.0 mg/kg/injection, schedule: Q01DX009 (ip), vehicle: saline with Tween-80) was 91 % of control. For the same molecule, the T/C [2] was 94 % of control, the T/C (endpoint: mean survival time, dose: 400.0 mg/kg/injection, schedule: Q01DX009 (ip), vehicle: saline with Tween-80) was 89 % of control and the T/C [3] was 93 % of control.
In the case of `CN(Cc1ccc2nc(N)nc(N)c2n1)c1ccc(C(=O)NC(CCC(=O)O)C(=O)O)cc1` (centres undefined), the T/C (endpoint: mean survival time, dose: 0.12 mg/kg/injection, schedule: Q01DX005 (ip), vehicle: sodium bicarbonate) is reported as 150 % of control, the T/C (endpoint: mean survival time, dose: 0.5 mg/kg/injection, schedule: Q01DX005 (ip), vehicle: sodium bicarbonate) is reported as 115 % of control and the T/C (endpoint: mean survival time, dose: 31.25 micrograms/kg/injection, schedule: Q01DX005 (ip), vehicle: sodium bicarbonate) is reported as 101 % of control. For the same molecule, the T/C (endpoint: mean survival time, dose: 62.5 micrograms/kg/injection, schedule: Q01DX005 (ip), vehicle: sodium bicarbonate) was 116 % of control and the T/C (endpoint: mean survival time, dose: 125.0 micrograms/kg/injection, schedule: Q01DX005 (ip), vehicle: sodium bicarbonate) was 122 % of control.
With `CCc1nc(N)nc(N)c1-c1ccc(Cl)c(N=[N+]=[N-])c1` the T/C (endpoint: median survival time, dose: 12.5 mg/kg/injection, schedule: Q01DX009 (ip), vehicle: distilled water + Tween-80) was 100 % of control, the T/C (endpoint: median survival time, dose: 25.0 mg/kg/injection, schedule: Q01DX009 (ip), vehicle: distilled water + Tween-80) was 101 % of control and 102 % of control and the T/C (endpoint: median survival time, dose: 50.0 mg/kg/injection, schedule: Q01DX009 (ip), vehicle: distilled water + Tween-80) was 102 % of control and 107 % of control. The T/C (endpoint: median survival time, dose: 100.0 mg/kg/injection, schedule: Q01DX009 (ip), vehicle: distilled water + Tween-80) was 113 % of control (2×) and 96 % of control.
For `Cc1ccc2c(C)cc(=O)[nH]c2c1`, the T/C [1] was 95 % of control, the T/C [2] was 95 % of control and the T/C [3] was 101 % of control.
With `N#C[C@H](OC1OC(COC2OC(CO)C(O)C(O)C2O)C(O)C(O)C1O)c1ccccc1` (some centres undefined) the T/C (endpoint: mean survival time, dose: 25.0 mg/kg/injection, schedule: Q01DX009 (ip), vehicle: saline) was 98 % of control, the T/C [4] was 96 % of control and the T/C (endpoint: mean survival time, dose: 50.0 mg/kg/injection, schedule: Q01DX009 (ip), vehicle: saline) was 97 % of control. The T/C [5] was 103 % of control, the T/C (endpoint: mean survival time, dose: 100.0 mg/kg/injection, schedule: Q01DX009 (ip), vehicle: saline) was 101 % of control and the T/C [6] was 96 % of control. The T/C (endpoint: mean survival time, dose: 200.0 mg/kg/injection, schedule: Q01DX009 (ip), vehicle: saline) was 104 % of control, the T/C [7] was 96 % of control and the T/C (endpoint: mean survival time, dose: 400.0 mg/kg/injection, schedule: Q01DX009 (ip), vehicle: saline) was 98 % of control. The T/C (endpoint: mean survival time, dose: 400.0 mg/kg/injection, schedule: Q01DX009 (ip), vehicle: water) was 105 % of control, the T/C (endpoint: mean survival time, dose: 800.0 mg/kg/injection, schedule: Q01DX009 (ip), vehicle: saline) was 107 % of control and the T/C (endpoint: mean survival time, dose: 800.0 mg/kg/injection, schedule: Q01DX009 (ip), vehicle: water) was 102 % of control.
`COC(=O)CCCNC(C)C` was tested, and the T/C (endpoint: mean survival time, dose: 12.5 mg/kg/injection, schedule: Q01DX009 (ip), vehicle: water) was 101 % of control, the T/C [4] was 95 % of control and the T/C [5] was 102 % of control. For the same molecule, the T/C [6] was 95 % of control and the T/C [7] was 102 % of control.
